The values below come from patent EP2662361A1, “Pyrazol indanyl carboxamides” (Bayer CropScience AG, priority 2012, dated 2013).

The nature of this data set: physchem. The class given is physicochemical. To be noted: reversed-phase c18 hplc, pH 2.7. The protocol: The logP values were measured in accordance with EEC Directive 79/831 Annex V.A8 by HPLC (High Performance Liquid Chromatography) using reversed-phase columns (C 18) by the following methods: • [a] The LC-MS determination in the acidic range is effected at pH 2.7 with 0.1% aqueous formic acid and acetonitrile (contains 0.1 % formic acid) as eluents; linear gradient from 10 % acetonitrile to 95 % acetonitrile.
Broadly, the chromatographic logP is a lipophilicity value derived from retention on a column. As for `Cn1cc(C(=O)Nc2cccc3c2CC(O)C3)c(C(F)F)n1` (stereo not drawn) [compound 1], the chromatographic logP was 1.42.

Compound `CC(C)OC1Cc2cccc(NC(=O)c3cn(C)nc3C(F)F)c2C1` (stereo not drawn) [compound 2] displayed a chromatographic logP of 2.71.

Take `CC(C)C1Cc2cccc(NC(=O)c3cn(C)nc3C(F)F)c2C1` (stereo not drawn) [compound 3]: the chromatographic logP amounted to 3.77.

In turn, `CC(C)CC1Cc2cccc(NC(=O)c3cn(C)nc3C(F)F)c2C1` (stereo not drawn) [compound 4] displayed a chromatographic logP of 4.14.

`CC1c2cccc(NC(=O)c3cn(C)nc3C(F)F)c2CC1(C)C` (stereo not drawn) [compound 5] displayed a chromatographic logP of 3.53.

Compound `CC1Cc2c(NC(=O)c3cn(C)nc3C(F)F)cccc2C1(C)C` (stereo not drawn) [compound 6] came in with a chromatographic logP of 3.55.
